From article PMC2936419, “Engineering of N. benthamiana L. plants for production of N-acetylgalactosamine-glycosylated proteins - towards development of a plant-based platform for production of protein therapeutics with mucin type O-glycosylation” (BMC Biotechnology, 2010)

Target: T1, human GalNAc-T2 (Homo sapiens, UniProt Q10471)
T1 construct: gene GALNT2; full coding region, untagged (pH7WG2:GNT2), stably expressed in Nicotiana benthamiana; microsomal fraction; ~65 kDa
Assay: GalNAc transfer to hCG-beta peptide; RP-HPLC, MALDI-TOF MS, radioactive assay
Format: biochemical
Details: donor with acceptor hCG-beta peptide 113-136 (500 ug in 100 ul); 10 mM MnCl2, 25 mM Tris HCl pH 7.4, 0.25% Triton X-100, 37 C; microsomes; control-plant microsomes as negative control; also 3H-labelle

T1 sequence (Q10471 whole entry): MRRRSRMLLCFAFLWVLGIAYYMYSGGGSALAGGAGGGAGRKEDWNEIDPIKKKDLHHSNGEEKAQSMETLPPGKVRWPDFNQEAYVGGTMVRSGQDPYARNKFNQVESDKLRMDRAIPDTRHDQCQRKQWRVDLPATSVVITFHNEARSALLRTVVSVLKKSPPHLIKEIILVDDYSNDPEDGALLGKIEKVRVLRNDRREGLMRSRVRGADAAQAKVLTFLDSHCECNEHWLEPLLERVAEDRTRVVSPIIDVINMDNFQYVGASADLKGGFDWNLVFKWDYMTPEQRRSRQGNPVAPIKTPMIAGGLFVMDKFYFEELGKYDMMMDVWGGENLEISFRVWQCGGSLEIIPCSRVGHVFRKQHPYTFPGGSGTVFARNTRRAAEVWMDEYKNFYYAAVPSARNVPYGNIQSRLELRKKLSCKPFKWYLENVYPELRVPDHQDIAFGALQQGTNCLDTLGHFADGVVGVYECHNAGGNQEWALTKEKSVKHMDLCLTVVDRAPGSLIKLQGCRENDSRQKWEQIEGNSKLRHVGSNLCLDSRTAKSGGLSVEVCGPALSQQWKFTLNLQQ

CC(=O)N[C@H]1[C@@H](OP(=O)(O)OP(=O)(O)OC[C@H]2O[C@@H](n3ccc(=O)[nH]c3=O)[C@H](O)[C@@H]2O)O[C@H](CO)[C@H](O)[C@@H]1O [UDP-GalNAc]
GalNAc transfer to hCG-beta peptide; RP-HPLC, MALDI-TOF MS, radioactive assay: plant microsomal fraction as an enzyme source, UDP-GalNAc as the donor
